Data from US20240358684A1, “METHOD FOR ENHANCING INNATE IMMUNE RESPONSE” (Kyoto University, priority 2021, published 2024).
Entries after “also recorded” stand apart in the source; their conditions may differ.

Experiments:
CLK1 = target: T1, CLK1 (Homo sapiens, UniProt P49759); experiment: Inhibition confirmation test for CLK (off-chip mobility shift assay); format: biochemical; settings: at 1 μM; read-out: CLK1 inhibitory activity
T1 construct: Enzyme activity was measured with off-chip mobility shift assay using purified CLK protein
T1 sequence (P49759 whole entry): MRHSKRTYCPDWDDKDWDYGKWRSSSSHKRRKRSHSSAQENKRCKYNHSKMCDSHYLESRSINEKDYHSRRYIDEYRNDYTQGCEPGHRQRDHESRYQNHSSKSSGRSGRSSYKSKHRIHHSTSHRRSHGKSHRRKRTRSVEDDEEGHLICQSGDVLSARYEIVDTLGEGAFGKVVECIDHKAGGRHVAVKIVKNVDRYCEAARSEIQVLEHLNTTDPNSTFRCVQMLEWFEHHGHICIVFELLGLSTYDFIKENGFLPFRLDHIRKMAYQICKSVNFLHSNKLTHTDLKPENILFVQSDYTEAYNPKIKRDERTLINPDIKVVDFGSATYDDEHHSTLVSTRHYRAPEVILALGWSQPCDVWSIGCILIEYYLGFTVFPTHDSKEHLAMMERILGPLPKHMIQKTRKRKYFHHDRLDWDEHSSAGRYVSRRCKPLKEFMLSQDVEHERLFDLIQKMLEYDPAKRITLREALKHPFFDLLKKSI
Method: Enzyme activity was measured with off-chip mobility shift assay using purified CLK protein. […] The enzyme reaction was performed at room temperature for 1 hour, and the reaction was terminated by adding QuickScout Screening Assist MSA (Carna Biosciences, Inc.). A substrate peptide and a phosphorylated peptide in the enzyme reaction solution were separated and quantified using the LabChip system (Perkin-Elmer, Waltham, MA, USA), and inhibition of CLK was evaluated by calculating a product ratio using the following formula, the substrate peptide peak height (S), and the phosphorylated peptide peak height (P).
(§1) (P/(P+S)) • P: product-derived peak • S: substrate-derived peak

CLK2 = target: T2, CLK2 (Homo sapiens, UniProt P49760); experiment: as above; format: biochemical; settings: at 1 μM; read-out: CLK2 inhibitory activity
T2 construct: Enzyme activity was measured with off-chip mobility shift assay using purified CLK protein
T2 sequence (P49760 whole entry): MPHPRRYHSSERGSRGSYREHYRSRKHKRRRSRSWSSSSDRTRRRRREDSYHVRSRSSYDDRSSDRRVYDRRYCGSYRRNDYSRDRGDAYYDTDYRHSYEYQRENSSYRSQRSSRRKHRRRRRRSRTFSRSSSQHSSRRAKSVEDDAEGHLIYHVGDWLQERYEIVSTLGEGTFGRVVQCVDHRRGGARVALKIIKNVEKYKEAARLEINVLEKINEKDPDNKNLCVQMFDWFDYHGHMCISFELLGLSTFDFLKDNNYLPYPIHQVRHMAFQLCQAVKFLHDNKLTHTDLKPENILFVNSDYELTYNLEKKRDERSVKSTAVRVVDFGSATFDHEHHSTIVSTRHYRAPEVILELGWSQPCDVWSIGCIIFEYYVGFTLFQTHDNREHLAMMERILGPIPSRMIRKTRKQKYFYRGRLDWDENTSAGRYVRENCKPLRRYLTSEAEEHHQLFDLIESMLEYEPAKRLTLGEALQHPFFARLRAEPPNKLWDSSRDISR
Method: (§2) Enzyme activity was measured with off-chip mobility shift assay using purified CLK protein. DYRKtide-F peptide (1 μM) was used as a substrate, and a composition of a reaction solution used was as follows (20 mM HEPES (pH7.5), 0.01% Triton X-100, 1 mM DT7, 1% DMSO, and ATP (10 μM for CLK1, 150 μM for CLK2, and 75 μM for CLK3)). The enzyme reaction was performed at room temperature for 1 hour, and the reaction was terminated by adding QuickScout Screening Assist MSA (Carna Biosciences, Inc.). A substrate peptide and a phosphorylated peptide in the enzyme reaction solution were separated and quantified using the LabChip system (Perkin-Elmer, Waltham, MA, USA), and inhibition of CLK was evaluated by calculating a product ratio using the following formula, the substrate peptide peak height (S), and the phosphorylated peptide peak height (P).
as §1

CLK3 = target: T3, CLK3 (Homo sapiens, UniProt P49761); experiment: as above; format: biochemical; settings: at 1 μM; read-out: CLK3 inhibitory activity
T3 construct: Enzyme activity was measured with off-chip mobility shift assay using purified CLK protein
T3 sequence (P49761 whole entry): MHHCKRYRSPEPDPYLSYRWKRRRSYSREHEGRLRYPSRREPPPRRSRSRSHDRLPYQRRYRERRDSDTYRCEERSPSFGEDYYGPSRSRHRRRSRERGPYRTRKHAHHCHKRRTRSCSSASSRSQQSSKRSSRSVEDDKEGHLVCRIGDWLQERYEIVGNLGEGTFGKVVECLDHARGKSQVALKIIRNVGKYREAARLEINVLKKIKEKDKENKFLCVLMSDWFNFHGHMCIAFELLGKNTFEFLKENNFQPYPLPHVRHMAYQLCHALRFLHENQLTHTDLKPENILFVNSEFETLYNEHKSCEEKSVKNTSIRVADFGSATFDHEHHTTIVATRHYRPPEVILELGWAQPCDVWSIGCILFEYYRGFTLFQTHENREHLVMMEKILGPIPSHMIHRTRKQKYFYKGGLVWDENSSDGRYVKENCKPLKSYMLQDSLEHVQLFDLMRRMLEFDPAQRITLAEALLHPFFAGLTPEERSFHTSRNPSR
Method: as §2, §1

[1] = tested on: OAS1 rs10774671 A-allele splicing; experiment: RT-PCR for OAS1 alternative splicing profile in Calu-3 (A/A allele) cells; format: cell-based, human; settings: for yield of the p44a splice form (RT-PCR) / yield of the p44a splice form compared with other compound treatment: Calu-3, 10 μM, 18 hours (Example 2)

inhibition at 1 µM (CLK1) [%]	inhibition at 1 µM (CLK2) [%]	inhibition at 1 µM (CLK3) [%]	SMILES	yield of the p44a splice form (RT-PCR) [1]	yield of the p44a splice form compared with other compound treatment [1]	yield of p44a splice form (RT-PCR) ([1]; Calu-3, 10 μM or 30 μM, 18 hours (Example 3))
98.4	90.5	21.6	c1cncc(-c2ccc3[nH]ncc3c2)c1 [compound 2, 5-pyridin-3-yl-1H-indazole]	increased the yield of the p44a splice form	higher than that in the compound 1 treatment	–
102	96.5	32.9	CCN1/C(=C/C(C)=O)Sc2ccc3occc3c21 [compound 3, 1-(1-ethylfuro[3,2-e][1,3]benzothiazol-2-ylidene)propan-2-one]	increased the yield of the p44a splice form	higher than that in the compound 1 treatment; also recorded: higher than that in the compound 2 treatment	–
–	–	–	CCN1/C(=C/C(C)=O)Sc2ccc(OC)cc21 [compound 4, 1-(3-ethyl-5-methoxy-1,3-benzothiazol-2-ylidene)propan-2-one, reference compound]	–	–	increased the yield of p44a splice form
